We go through 1 compound from patent US20200172473A1, “DUAL MODULATORS OF FARNESOID X RECEPTOR AND SOLUBLE EPOXIDE HYDROLASE” (JOHANN WOLFGANG GOETHE-UNIVERSITÄT FRANKFURT AM MAIN, priority 2017, published 2020).

One data set has as its target T1, PPARα (Homo sapiens, UniProt Q07869).
T1 construct: pFA-CMV-hPPARα-LBD; expressed in transfected cells; host or cells: HEK293T
T1 sequence (Q07869 239-466 limits assumed): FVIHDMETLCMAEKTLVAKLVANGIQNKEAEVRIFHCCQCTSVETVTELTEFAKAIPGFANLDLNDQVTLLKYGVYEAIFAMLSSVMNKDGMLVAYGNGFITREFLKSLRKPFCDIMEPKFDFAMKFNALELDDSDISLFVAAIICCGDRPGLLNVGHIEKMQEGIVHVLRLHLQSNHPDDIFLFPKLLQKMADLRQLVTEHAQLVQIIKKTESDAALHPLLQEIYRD
The experiment in a line: Gal4-hybrid reporter gene assay PPARα in HEK293T cells. Type of data set: cell-based. Conditions: 10 μM. An excerpt:
(§1) Hybrid reporter gene assays for PPARα/γ/δ, LXRα/β, RXRα/β/γ, RARα/β/γ, VDR and PXR Plasmids: The Gal4-fusion receptor plasmids pFA-CMV-hPPARα-LBD^52, pFA-CMV-hPPARγ-LBD^52, pFA-CMV-hPPARδ-LBD^52, pFA-CMV-hLXRα-LBD^32 and pFA-CMV-hLXRβ-LBD^32 have been reported previously. […] Frame and sequence of all fusion receptors were verified by sequencing. pFR-Luc (Stratagene) was used as reporter plasmid and pRL-SV40 (Promega) for normalization of transfection efficiency and cell growth.
(§2) Assay procedure: HEK293T cells were grown in DMEM high glucose, supplemented with 10% FCS, sodium pyruvate (1 mM), penicillin (100 U/mL) and streptomycin (100 μg/mL) at 37° C. and 5% CO2. The day before transfection, HEK293T cells were seeded in 96-well plates (2.5·10^4 cells/well). Before transfection, medium was changed to Opti-MEM without supplements. Transient transfection was carried out using Lipofectamine LTX reagent (Invitrogen) according to the manufacturer's protocol with pFR-Luc (Stratagene), pRL-SV40 (Promega) and pFA-CMV-hRXRα-LBD. 5 h after transfection, medium was changed to Opti-MEM supplemented with penicillin (100 U/mL), streptomycin (100 μg/mL), now additionally containing 0.1% DMSO and the respective test compound or 0.1% DMSO alone as untreated control. […] Luminescence was measured with an Infinite M200 luminometer (Tecan Deutschland GmbH). […]
For orientation: In a reporter assay the amount or activity of a reporter protein is the signal.

The test system of data set [1] is related nuclear receptors (PPARs, LXRs, RXRs, RARs, PXR and VDR). In words: selectivity profile in Gal4-hybrid reporter gene assays (panel statement). The class given is cell-based, human. The settings on record: except PPARγ.
Source text: as §1, §2

Data set [2] is described as follows: observation of animals in the pilot in vivo study. The settings on record: single oral dose 10 mg/kg body weight. Also on record: species or system mouse. As to the method:
Animals and compound application: 9 male C57BL/6JRj mice (23-26 g body weight, purchased from Janvier Labs, France) were used in the present study. The animals were housed in a temperature-controlled room (20-24° C.) and maintained in a 12 h light/12 h dark cycle. Food and water were available ad libitum. The in life phase was performed by the contract research organization Pharmacelsus (Saarbrücken, Germany). All experimental procedures were approved by and conducted in accordance with the regulations of the local Animal Welfare authorities (Landesamt für Gesundheit und Verbraucherschutz, Abteilung Lebensmittel-und Veterinärwesen, Saarbrücken). Six animals received a single oral dose of 10 mg/kg body weight of dual modulator 57 in water containing 1% HPMC/Tween 80 (99:1). Three animals received the vehicle (water containing 1% HPMC/Tween 80 (99:1)).

Molecules are shown by their SMILES.

As for `CC(C)(C)c1ccc(C(=O)NCc2ccc(NS(C)(=O)=O)cc2Cl)cc1` [compound 57, 4-(tert-Butyl)-N-(2-chloro-4-(methylsulfonamido)benzyl)benzamide], at PPARα, the “activity on PPARα” value is “inactive”. Moreover, the “activity on related nuclear receptors” value in data set [1] was “inactive”. In addition, in data set [2], the “adverse effects in mice” value is “no adverse effects”.
